# Source: US20220098265A1 (MEDIMMUNE LIMITED, priority 2012, published 2022)
# Like-named read-outs stand apart in the source and are kept apart here. Numbered stars: 1 amine (or outer) side, 2 acyl side, 3 side chain; on linkers, the order of the positions; unused ones are H or OH. Side chains are listed from the residue outwards. Peptide text beside a SMILES is read from it. * marks the point of attachment. γGlu = O=C(O)[C@H](CCC(=O)[*:2])N[*:1]; Palmitoyl = CCCCCCCCCCCCCCCC(=O)*
# T1: Human GIPr (Homo sapiens, UniProt P48546)
# T1 construct: expressed in transfected cells
# T1 sequence (P48546 22-466): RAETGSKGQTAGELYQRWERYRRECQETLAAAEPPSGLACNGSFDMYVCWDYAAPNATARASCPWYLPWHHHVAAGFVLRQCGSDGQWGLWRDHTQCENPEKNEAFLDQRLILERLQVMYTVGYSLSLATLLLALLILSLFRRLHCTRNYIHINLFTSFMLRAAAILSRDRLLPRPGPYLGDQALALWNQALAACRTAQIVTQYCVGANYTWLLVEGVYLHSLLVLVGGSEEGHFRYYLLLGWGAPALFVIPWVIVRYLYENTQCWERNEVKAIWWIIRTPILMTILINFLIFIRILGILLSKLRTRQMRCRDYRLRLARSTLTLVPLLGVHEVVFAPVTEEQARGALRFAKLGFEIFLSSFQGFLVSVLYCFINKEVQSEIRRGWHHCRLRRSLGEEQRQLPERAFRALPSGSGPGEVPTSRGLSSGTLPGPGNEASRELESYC
# T2: human glucose-dependent insulinotropic peptide (gastric inhibitory polypeptide) receptor (human, UniProt P48546 22-466)
# T2 sequence (looked up): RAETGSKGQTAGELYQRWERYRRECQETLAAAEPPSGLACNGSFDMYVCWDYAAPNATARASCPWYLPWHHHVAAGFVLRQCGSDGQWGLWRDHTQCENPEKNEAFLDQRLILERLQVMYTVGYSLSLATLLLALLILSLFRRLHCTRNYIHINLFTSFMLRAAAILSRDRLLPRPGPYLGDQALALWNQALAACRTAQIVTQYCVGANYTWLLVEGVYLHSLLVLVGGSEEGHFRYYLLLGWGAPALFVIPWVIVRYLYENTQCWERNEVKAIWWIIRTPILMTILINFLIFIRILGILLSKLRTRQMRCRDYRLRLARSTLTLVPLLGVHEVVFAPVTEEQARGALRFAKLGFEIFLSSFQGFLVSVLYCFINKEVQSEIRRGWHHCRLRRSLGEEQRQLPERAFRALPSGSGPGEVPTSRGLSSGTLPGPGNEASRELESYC
# T3: mouse GLP-1 receptor (mouse, UniProt O35659 22-463)
# T3 sequence (looked up): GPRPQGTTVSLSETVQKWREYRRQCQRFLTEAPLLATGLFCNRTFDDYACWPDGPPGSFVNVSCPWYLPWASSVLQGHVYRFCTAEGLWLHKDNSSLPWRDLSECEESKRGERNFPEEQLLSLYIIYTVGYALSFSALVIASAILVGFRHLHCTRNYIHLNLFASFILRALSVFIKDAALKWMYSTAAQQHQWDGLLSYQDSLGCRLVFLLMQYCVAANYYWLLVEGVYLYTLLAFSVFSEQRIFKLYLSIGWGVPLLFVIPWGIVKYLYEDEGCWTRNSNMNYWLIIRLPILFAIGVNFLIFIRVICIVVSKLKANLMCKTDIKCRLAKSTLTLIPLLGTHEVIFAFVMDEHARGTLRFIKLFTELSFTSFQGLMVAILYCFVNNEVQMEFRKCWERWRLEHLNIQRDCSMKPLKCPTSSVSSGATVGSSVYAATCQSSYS
# Columns and labels:
# Human GIPr = target: T1, Human GIPr; experiment: cAMP activity assay 1 in assay medium, human GIP receptor; format: cell-based; settings: additional peptides (Table 4)
# Protocol: (§1) All sample dilutions were made in duplicate.
# (§2) A frozen cryo-vial of cells expressing the receptor of interest was thawed rapidly in a water-bath, transferred to pre-warmed assay media and spun at 240×g for 5 minutes. Cells were re-suspended in assay media at an optimised concentration (e.g. hGCGR cells at 1×10^5 cells/ml, hGLP-1R and hGIPR cells at 0.5×10^5 cells/ml).
# (§3) To this, 5 μL cell suspension was added and the plates incubated at room temperature for 30 minutes.
# (§4) cAMP levels were measured using a commercially available cAMP dynamic 2 HTRF kit (Cisbio, Cat #62AM4PEJ), following the two step protocol as per manufacturer's recommendations. In brief; anti-cAMP cryptate (donor fluorophore) and cAMP-d2 (acceptor fluorophore) were made up separately by diluting each 1/20 in conjugate & lysis buffer provided in the kit. 5 μL anti-cAMP cryptate was added to all wells of the assay plate, and 5 μL cAMP-d2 added to all wells except non-specific binding (NSB) wells, to which conjugate and lysis buffer was added.
# Human GlucR = Human GlucR (Homo sapiens, UniProt P47871); settings: read-out: hGlucR EC50; assay 1; additional peptides (Table 4)
# Human GlucR, sequence (P47871 26-477): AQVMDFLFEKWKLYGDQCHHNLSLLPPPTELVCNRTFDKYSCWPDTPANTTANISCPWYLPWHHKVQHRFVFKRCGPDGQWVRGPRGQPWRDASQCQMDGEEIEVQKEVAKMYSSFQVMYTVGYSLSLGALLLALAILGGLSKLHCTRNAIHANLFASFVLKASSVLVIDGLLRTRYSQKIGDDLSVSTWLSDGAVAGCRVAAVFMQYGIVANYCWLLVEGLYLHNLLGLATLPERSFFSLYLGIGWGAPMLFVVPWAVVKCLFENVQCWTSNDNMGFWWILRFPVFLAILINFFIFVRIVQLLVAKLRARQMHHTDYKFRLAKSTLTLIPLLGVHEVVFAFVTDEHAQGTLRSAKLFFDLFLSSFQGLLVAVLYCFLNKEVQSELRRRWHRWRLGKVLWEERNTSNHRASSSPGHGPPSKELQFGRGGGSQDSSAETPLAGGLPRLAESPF
# Protocol: as §1, §2, §3, §4
# Human GLP1R = Human GLP1R (Homo sapiens, UniProt P43220); settings: read-out: hGLP1R EC50; assay 1; additional peptides (Table 4)
# Human GLP1R, sequence (P43220 24-463): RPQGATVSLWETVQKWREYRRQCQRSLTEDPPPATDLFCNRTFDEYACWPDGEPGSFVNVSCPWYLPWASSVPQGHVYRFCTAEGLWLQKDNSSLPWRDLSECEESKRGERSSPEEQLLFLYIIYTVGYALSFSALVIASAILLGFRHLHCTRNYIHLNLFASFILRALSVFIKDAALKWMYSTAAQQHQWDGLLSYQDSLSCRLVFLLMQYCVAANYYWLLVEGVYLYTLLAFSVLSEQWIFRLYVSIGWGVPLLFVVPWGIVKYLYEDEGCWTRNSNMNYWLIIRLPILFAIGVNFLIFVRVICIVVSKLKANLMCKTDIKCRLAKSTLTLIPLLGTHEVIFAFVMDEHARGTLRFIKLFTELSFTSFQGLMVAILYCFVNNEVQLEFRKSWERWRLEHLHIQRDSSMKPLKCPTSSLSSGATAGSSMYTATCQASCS
# Protocol: as §1, §2, §3, §4
# human serum albumin = human serum albumin (Homo sapiens, UniProt P02768); experiment: Fraction of free peptide at plasma concentration of albumin, calculated from variation in cAMP generation with HSA concentration; format: in vitro ADME; parameters: purchased Sigma Aldrich
# human serum albumin, sequence (P02768 25-609): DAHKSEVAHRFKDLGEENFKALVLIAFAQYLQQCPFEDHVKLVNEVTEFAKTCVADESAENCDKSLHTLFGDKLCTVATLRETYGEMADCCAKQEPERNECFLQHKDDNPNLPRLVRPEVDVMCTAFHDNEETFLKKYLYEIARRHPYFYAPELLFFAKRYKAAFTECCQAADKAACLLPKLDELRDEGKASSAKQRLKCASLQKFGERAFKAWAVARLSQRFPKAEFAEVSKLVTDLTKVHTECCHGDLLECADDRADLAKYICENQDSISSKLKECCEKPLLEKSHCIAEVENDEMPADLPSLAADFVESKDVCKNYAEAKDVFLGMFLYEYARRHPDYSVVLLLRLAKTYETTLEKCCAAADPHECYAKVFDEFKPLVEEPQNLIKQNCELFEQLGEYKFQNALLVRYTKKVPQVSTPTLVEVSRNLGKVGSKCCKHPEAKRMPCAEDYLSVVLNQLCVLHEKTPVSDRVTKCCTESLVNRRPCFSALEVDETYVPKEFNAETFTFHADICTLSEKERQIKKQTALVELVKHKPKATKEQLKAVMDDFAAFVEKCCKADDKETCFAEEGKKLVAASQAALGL
# [1] = Stability testing of peptides in human plasma; format: in vitro ADME
# Protocol: Stability testing of peptides in plasma. The stability in plasma of the peptides […], […], […] and […] was determined as follows. […] The frozen blank plasma from human, rat and mouse had been thawed and heated to a temperature of 37° C. before addition of the stock solution. The spiked plasma samples were gently mixed and allowed to equilibrate for about 5 minutes before start of experiment. The plasma samples were incubated for 48 hours in a Galaxy® CO2 incubator at 37° C. […] The samples were stored at -70° C. until analysis. Plasma samples were assayed as follows. The 30 μL plasma samples were protein precipitated with […] of cold ethanol in a 96-well low bind plate (Eppendorf Protein LoBind). After mixing and centrifugation 100 μl the supernatant was transferred to a new plate and 1 μl was injected onto an analytical column. The analysis was performed using a μLC-system ([…]) coupled to a medium high resolution mass spectrometer (Perkin Elmer PenTOF) with positive electrospray ionisation. […] Flow: 0.1 ml/min using a slow reversed phase gradient. […] Products with +1 mass may arise from deamidation at amide groups of glutamine or at the C-terminus. Cleavage products arise from the action of the protease DPP IV in plasma. Both the degradation of the peptides and formation of peptide products were reported in percentage of the initial peptide concentration. Peaks were integrated and % remaining peptide was calculated: […] Levels of deamidation and DPP IV cleavage were low for […] and […].
# DIO mice = experiment: Diet induced obesity (DIO) mouse model, study B; format: in vivo; settings: for BW day 14 (% change of vehicle mean) / HOMA / Hepatic TG (g TG/100g tissue) / Plasma NEFA / Plasma TG: day 14; for Glucose / Insulin: day 14, 4-hour fasting
# Protocol: The body weight of the animals was monitored daily throughout the dosing period At day 14, blood samples for the measurement of plasma glucose and insulin from conscious mice were obtained after a 4-hour fasting period. Mice were then anaesthetized using isofluorane and terminal blood was collected from the capillary bed behind the eye. The following parameters were measured: blood chemistry measurements of triglycerides, total cholesterol, non-esterified fatty acids (NEFA), beta-hydroxybutyrate and fibroblast growth factor 21 (FGF21) (Table 16 and Table 17 below).
# [2] = frozen blank plasma from rat; settings: 37° C, up to 48 hours
# human GLP-1 receptor [3] = target: T4, human GLP-1 receptor (human, UniProt P43220 24-463); experiment: cell-based or functional assay
# human glucagon receptor [4] = target: T5, human glucagon receptor (human, UniProt P47871 26-477); experiment: cell-based or functional assay
# T5 sequence (P47871 26-477): as the sequence (P47871 26-477) above
# [5] = target: T2, human glucose-dependent insulinotropic …; experiment: cell-based or functional assay
# human GLP-1 receptor [6] = target: T4, human GLP-1 receptor; experiment: cell-based or functional assay; remark: listed apart in the source
# human glucagon receptor [7] = target: T5, human glucagon receptor; experiment: cell-based or functional assay; remark: listed apart in the source
# [8] = target: T2, human glucose-dependent insulinotropic …; experiment: cell-based or functional assay; remark: listed apart in the source
# human GLP-1 receptor [9] = target: T4, human GLP-1 receptor; experiment: cell-based or functional assay; remark: listed apart in the source
# human glucagon receptor [10] = target: T5, human glucagon receptor; experiment: cell-based or functional assay; remark: listed apart in the source
# [11] = target: T2, human glucose-dependent insulinotropic …; experiment: cell-based or functional assay; remark: listed apart in the source
# human GLP-1 receptor [12] = target: T4, human GLP-1 receptor; experiment: cell-based or functional assay; remark: listed apart in the source
# human glucagon receptor [13] = target: T5, human glucagon receptor; experiment: cell-based or functional assay; remark: listed apart in the source
# mouse glucagon receptor = mouse glucagon receptor (mouse, UniProt Q61606 27-485); experiment: cell-based or functional assay
# mouse glucagon receptor, sequence (Q61606 27-485): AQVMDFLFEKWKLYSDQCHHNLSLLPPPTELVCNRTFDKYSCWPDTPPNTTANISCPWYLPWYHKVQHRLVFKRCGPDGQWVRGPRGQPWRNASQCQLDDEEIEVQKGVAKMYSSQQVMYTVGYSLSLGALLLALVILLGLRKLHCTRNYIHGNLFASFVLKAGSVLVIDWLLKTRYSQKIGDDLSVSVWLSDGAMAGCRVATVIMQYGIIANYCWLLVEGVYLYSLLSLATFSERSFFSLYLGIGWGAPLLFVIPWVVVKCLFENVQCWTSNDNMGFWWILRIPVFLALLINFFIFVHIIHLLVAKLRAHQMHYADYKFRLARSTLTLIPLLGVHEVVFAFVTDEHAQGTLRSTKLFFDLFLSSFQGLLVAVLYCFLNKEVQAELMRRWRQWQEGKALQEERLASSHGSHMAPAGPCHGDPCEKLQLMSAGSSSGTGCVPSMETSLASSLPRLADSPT
# mouse GLP-1 receptor = target: T3, mouse GLP-1 receptor; experiment: cell-based or functional assay
# Protocol for physchem: Peptide solubility was assessed in three different isotonic formulations: • 1. […] Final formulation pH=7.2 • 2. Back up formulation 1 (BF1)=0.05M Tris, 50 mM Arginine/Proline. Final formulation pH=8.0 • 3. […] Final formulation pH=7.0
molecule,measurement,setting,value
CCCCCCCCCCCCCCCC(=O)N[C@@H](CCC(=O)NCCCC[C@H](NC(=O)[C@H](Cc1ccc(O)cc1)NC(=O)[C@H](CCCNC(=N)N)NC(=O)[C@H](CO)NC(=O)[C@H](Cc1ccc(O)cc1)NC(=O)[C@H](CC(=O)O)NC(=O)[C@H](CO)NC(=O)[C@@H](NC(=O)[C@H](Cc1ccccc1)NC(=O)[C@@H](NC(=O)CNC(=O)[C@H](CCC(N)=O)NC(=O)[C@H](CO)NC(=O)[C@@H](N)Cc1c[nH]cn1)[C@@H](C)O)[C@@H](C)O)C(=O)N[C@@H](CC(=O)O)C(=O)N[C@@H](CO)C(=O)N[C@@H](CCCNC(=N)N)C(=O)N[C@@H](CO)C(=O)N[C@@H](C)C(=O)N[C@@H](CCCNC(=N)N)C(=O)N[C@@H](CC(=O)O)C(=O)N[C@@H](Cc1ccccc1)C(=O)N[C@H](C(=O)N[C@@H](C)C(=O)N[C@@H](Cc1c[nH]c2ccccc12)C(=O)N[C@@H](CC(C)C)C(=O)N[C@@H](CCC(=O)O)C(=O)N[C@@H](C)C(N)=O)C(C)C)C(=O)O [g850] (H-HSQGTFTSDYSRYK([γGlu-Palmitoyl])DSRSARDFVAWLEA-NH2),EC50,Human GIPr; read-out: hGIPR EC50,89.6 nM
same,EC50,Human GlucR,0.00219 nM
same,EC50,Human GLP1R,0.0212 nM
Listed in the section of parent HSQGTFTSDYSKYLDSRRAQDFVQWLEAGG; no modification printed [g536],EC50,Human GLP1R,0.0745 nM
CCCCCCCCCCCCCCCC(=O)N[C@@H](CCC(=O)NCCCC[C@H](NC(=O)[C@H](CO)NC(=O)[C@H](CC(=O)O)NC(=O)[C@H](CC(C)C)NC(=O)[C@H](Cc1ccc(O)cc1)NC(=O)[C@H](CCCCN)NC(=O)[C@H](CO)NC(=O)[C@H](Cc1ccc(O)cc1)NC(=O)[C@H](CC(=O)O)NC(=O)[C@H](CO)NC(=O)[C@@H](NC(=O)[C@H](Cc1ccccc1)NC(=O)[C@@H](NC(=O)CNC(=O)[C@H](CCC(N)=O)NC(=O)[C@H](CO)NC(=O)[C@@H](N)Cc1c[nH]cn1)[C@@H](C)O)[C@@H](C)O)C(=O)N[C@@H](CCCNC(=N)N)C(=O)N[C@@H](C)C(=O)N[C@@H](CCC(=O)O)C(=O)N[C@@H](CC(=O)O)C(=O)N[C@@H](Cc1ccccc1)C(=O)N[C@H](C(=O)N[C@@H](CCC(N)=O)C(=O)N[C@@H](Cc1c[nH]c2ccccc12)C(=O)N[C@@H](CC(C)C)C(=O)N[C@H](C(=O)N[C@@H](C)C(=O)NCC(=O)NCC(N)=O)C(C)C)C(C)C)C(=O)O [g599],EC50,"Human GIPr; g688, read-out: hGIPR EC50",112 nM
CCCCCCCCCCCCCCCC(=O)N[C@@H](CCC(=O)NCCCC[C@H](NC(=O)[C@H](CC(=O)O)NC(=O)[C@H](CO)NC(=O)[C@@H](NC(=O)[C@H](Cc1ccccc1)NC(=O)[C@@H](NC(=O)CNC(=O)[C@H](CCC(N)=O)NC(=O)[C@H](CO)NC(=O)[C@@H](N)Cc1c[nH]cn1)[C@@H](C)O)[C@@H](C)O)C(=O)N[C@@H](CO)C(=O)N[C@@H](CCC(=O)O)C(=O)N[C@@H](Cc1ccc(O)cc1)C(=O)N[C@@H](CC(C)C)C(=O)N[C@@H](CC(=O)O)C(=O)N[C@@H](CO)C(=O)N[C@@H](CCC(=O)O)C(=O)N[C@@H](CCCNC(=N)N)C(=O)N[C@@H](C)C(=O)N[C@@H](CCCNC(=N)N)C(=O)N[C@@H](CC(=O)O)C(=O)N[C@@H](Cc1ccccc1)C(=O)N[C@H](C(=O)N[C@@H](C)C(=O)N[C@@H](Cc1c[nH]c2ccccc12)C(=O)N[C@@H](CC(C)C)C(=O)N[C@@H](CCC(=O)O)C(=O)N[C@@H](C)C(=O)NCC(=O)NCC(=O)O)C(C)C)C(=O)O [Peptide G933],free peptide at 4.4% HSA,human serum albumin,0.29%
same,% DPP cleaved product/+1 DPP cleaved product,[1],<1%
same,BW day 14 (% change of vehicle mean),DIO mice; 5 nmol/kg s.c. twice daily for 14 days,−11%
same,HOMA,DIO mice; 5 nmol/kg s.c. twice daily,3.31
same,Hepatic TG (g TG/100g tissue),DIO mice; 5 nmol/kg s.c. twice daily,11.3 g TG/100g tissue
same,Plasma NEFA,DIO mice; 5 nmol/kg s.c. twice daily,0.28 mM
same,Plasma TG,DIO mice; 5 nmol/kg s.c. twice daily,0.19 mM
same,Glucose,DIO mice; 5 nmol/kg s.c. twice daily,6.2 mM
same,Insulin,DIO mice; 5 nmol/kg s.c. twice daily,0.53 nM
same,BW day 14 (% change of vehicle mean),DIO mice; 10 nmol/kg s.c. twice daily for 14 days,−19%
same,HOMA,DIO mice; 10 nmol/kg s.c. twice daily,1.98
same,Hepatic TG (g TG/100g tissue),DIO mice; 10 nmol/kg s.c. twice daily,14.7 g TG/100g tissue
same,Plasma NEFA,DIO mice; 10 nmol/kg s.c. twice daily,0.27 mM
same,Plasma TG,DIO mice; 10 nmol/kg s.c. twice daily,0.16 mM
same,Glucose,DIO mice; 10 nmol/kg s.c. twice daily,7.2 mM
same,Insulin,DIO mice; 10 nmol/kg s.c. twice daily,0.27 nM
same,effect on body weight over the 14 day dosing period,"DIO mice; study B, FIGS. 5-8",dose dependent and continuous weight loss
same,solubility,physchem; pH 7,≥ 10000 µg/mL
same,solubility,physchem; pH 7.2,≥ 5000 µg/mL
HSQGTFTSDXSRYLDSRSARDFVAWLEAGG-amide X10 = K(gE-palm),fragment found,[2],DPP IV-cleavage product
HSQGTFTSDXSSYLDSRSARDFVAWLEAGG (X10 = K(gE-palm); C-terminal acid) [G973],cAMP EC50 (assay 1),human GLP-1 receptor [3],0.012 nM
same,cAMP EC50 (assay 1),human glucagon receptor [4],0.0089 nM
same,cAMP EC50 (assay 1),[5],47 nM
HGQGTFTSDYSKYLDSKRAQDFVQWLVAGG (X17 = K(gE-palm); C-terminal amide) [G380],cAMP EC50 (assay 1),human GLP-1 receptor [6],0.1 nM
same,cAMP EC50 (assay 1),human glucagon receptor [7],0.362 nM
same,cAMP EC50 (assay 1),[8],609 nM
same,cAMP EC50 (assay 1),human GLP-1 receptor [9],0.077 nM
same,cAMP EC50 (assay 1),human glucagon receptor [10],0.217 nM
same,cAMP EC50 (assay 1),[11],130 nM
same,"cAMP EC50 (assay 2, 4.4% human serum albumin)",human GLP-1 receptor [12],6.54 nM
same,"cAMP EC50 (assay 2, 4.4% human serum albumin)",human glucagon receptor [13],53.6 nM
same,"cAMP EC50 (assay 2, 3.2% mouse serum albumin)",mouse glucagon receptor,576 nM
same,"cAMP EC50 (assay 2, 3.2% mouse serum albumin)",mouse GLP-1 receptor,15 nM
